Columns and labels:
[1] = test system: Bacillus cereus ATCC 10702 NCTC 8035; experiment: Antimicrobial activity, serial dilution technique in Mueller–Hinton Broth 2; format: cell-based; settings: Bacillus cereus, Bc, average of three ± SD, - means non-active
Method in brief: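 Antibacterial activity against Bacillus cereus ATCC 10702 NCTC 8035 was measured by serial dilution in Mueller–Hinton Broth 2 at a bacterial load of 3.0 × 10^5 cfu/mL. Cultures were kept at 37 °C and growth was read every 24 h for 5 days. The experiment was done three times, and MIC and bactericidal concentrations were determined.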

[2] = test system: Enterococcus faecalis ATCC 2921; experiment: as above; format: cell-based; settings: Ef; average of three ± SD; - means non-active
Method in brief: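 Antibacterial activity against Enterococcus faecalis ATCC 2921 was assessed by serial dilution in Mueller–Hinton Broth 2 with a bacterial load of 3.0 × 10^5 cfu/mL. Cultures were incubated at 37 °C, with growth recorded every 24 h for 5 days, and the experiment was performed three times.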

[3] = test system: Escherichia coli ATCC 25922; experiment: as above; format: cell-based; settings: Escherichia coli, ATCC25922, Ec; average of three ± SD; - means non-active; read-out: Minimum Inhibitory Concentration (MIC), Ec
Method in brief: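 Compounds were serially diluted in Mueller–Hinton Broth 2 and inoculated at 3.0 × 10^5 cfu/mL. Cultures were then incubated at 37 °C with growth recorded daily for 5 days. The MIC was taken as the minimum concentration inhibiting growth, from three experiments.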

[4] = test system: Pseudomonas aeruginosa ATCC 9027; experiment: as above; format: cell-based; settings: Pseudomonas aeruginosa, ATCC9027, Pa, average of three ± SD, - means non-active
[5] = test system: Staphylococcus aureus ATCC 6538P FDA 209P; experiment: as above; format: cell-based; settings: Staphylococcus aureus, Sa, average of three ± SD, - means non-active
Method in brief: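 Antimicrobial activity against Staphylococcus aureus ATCC 6538P FDA 209P was measured by serial dilution in Mueller–Hinton Broth 2 at a bacterial load of 3.0 × 10^5 cfu/mL. Cultures were incubated at 37 °C, growth was recorded every 24 h for 5 days, and the experiment was done three times.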

S. aureus = experiment: Zone-of-inhibition test of coated PC+ plastic sample; format: cell-based, Staphylococcus aureus; settings: PC+ sample immersed 1 min in 1% solution of 12a in ethanol, 37 °C 24 h
Procedure: The inhibition-zone test is a quick and qualitative way to measure the ability of an antimicrobial agent to suppress microbial growth. The sensitivity of the method is quite high and even a small amount of residual biocide in a model system can be detected. […] In this experiment, we used cultures of the bacteria P. aeruginosa and S. aureus. First, the microbial suspension was spread on a sterile agar plate. Then, a plastic sample (PC+), which was preliminarily immersed for 1 min in a 1% solution of compound 12a in ethanol, was placed in the center of the Petri dish with agar. During the incubation period, the inoculum bacteria can only grow where is no antimicrobial agent. If the active agent is washed out of the sample into the environment (in this case, agar), bacterial growth in the area around the sample is suppressed. The width of this area is determined by the diffusion of the active compound in the vicinity. […] From the results obtained, it is clear that a relatively stable surface coating was achieved using a simple experimental procedure.
This sample was tested for possible release of the active compound. Tests were performed on a culture of Gram-negative bacteria P. aeruginosa and Gram-positive bacteria S. aureus. […] Then, Petri dishes were placed in an incubator at 37 °C for 24 h, and the presence of inhibition zones was evaluated.

[6] = test system: Escherichia coli ATCC 25922; experiment: Antimicrobial activity, serial dilution technique in Mueller–Hinton Broth 2; format: cell-based; settings: Escherichia coli, ATCC25922, Ec; average of three ± SD; - means non-active; read-out: Minimum Bactericidal and Fungicidal Concentration (MBC, MFC), Ec

With `CCCCCCCCCCCC[P+](C(C)(C)C)(C(C)(C)C)C(C)(C)C` [Compound 12a, tri-tert-butyl(n-dodecyl)phosphonium] the MBC ([1]; read-out: Minimum Bactericidal and Fungicidal Concentration (MBC, MFC), Bc) was 62.5 ± 5.3 µg/mL, the MIC ([1]; read-out: Minimum Inhibitory Concentration (MIC), Bc) was 1.9 ± 0.01 µg/mL and the “Minimum Bactericidal and Fungicidal Concentration (MBC, MFC), Ef” value [2] was 1.9 ± 0.1 µg/mL. For the same compound, the “Minimum Inhibitory Concentration (MIC), Ef” value [2] was 0.9 ± 0.06 µg/mL, the MIC [3] was 7.8 ± 0.6 µg/mL and the MBC ([4]; read-out: Minimum Bactericidal and Fungicidal Concentration (MBC, MFC), Pa) was 125 ± 11 µg/mL. For the same compound, the MIC ([4]; read-out: Minimum Inhibitory Concentration (MIC), Pa) was 62.5 ± 5.5 µg/mL, the MBC ([5]; read-out: Minimum Bactericidal and Fungicidal Concentration (MBC, MFC), Sa) was 0.5 ± 0.03 µg/mL and the MIC ([5]; read-out: Minimum Inhibitory Concentration (MIC), Sa) was 0.5 ± 0.03 µg/mL. For the same compound, the zone of inhibition (S. aureus) was “no zones of inhibition” and the MBC [6] was 7.8 ± 0.7 µg/mL.

Source: article PMC8744835, “Sterically Hindered Quaternary Phosphonium Salts (QPSs): Antimicrobial Activity and Hemolytic and Cytotoxic Properties” (International Journal of Molecular Sciences, 2021)
